One assay has as its target T1, CCL21 (Homo sapiens, UniProt O00585).
T1 construct: Our previous NMR studies defined the 3D structure of full-length CCL21; made in house
T1 sequence (O00585 24-134): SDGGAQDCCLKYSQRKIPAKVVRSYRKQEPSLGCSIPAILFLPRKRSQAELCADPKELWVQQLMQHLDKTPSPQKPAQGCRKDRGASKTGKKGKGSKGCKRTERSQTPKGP
Nature of the assay: 15N-1H HSQC NMR titration of U-15N CCL21 with CCR7 N-terminal peptides; Kd by nonlinear fitting of chemical shift perturbations. It is filed as binding. As to conditions: for Kd: 100 μM U-15N CCL21 titrated with peptide, NMR buffer 25 mM deuterated MES, 10% D2O, 0.2% NaN3, pH 6.0, 25 °C, fit of all CCL21 residues with significant chemical shift perturbations (11–30 sY17: only residues that did not broaden beyond detection), ± CI at 95% confidence level; for Kd, CCL21 K69 only (representative residue): nonlinear fitting of combined amide chemical shift perturbations of CCL21 residue K69 versus peptide concentration, 100 μM U-15N CCL21, pH 6.0, 25 °C. The procedure:
NMR spectroscopic data were collected at the NMR facility at the Medical College of Wisconsin on a Bruker Avance 600 MHz spectrometer equipped with ^1H/^13C/^15N Cryoprobe® at 25 °C. Chemical shift assignments for CCR7 1–30 C24A (H, N, C, C^α, and most side chain carbons) were determined by standard techniques using 1.05 mM U-^15N/^13C labeled CCR7 1–30 C24A in NMR buffer (25 mM deuterated MES, 10% D2O, 0.2% NaN3, pH 6.0). To determine CCR7 N-terminal residues likely involved in CCL21 binding, 200 μM U-^15N/^13C CCR7 1–30 C24A in NMR buffer was monitored using ^15N-^1H HSQC spectra while titrating with increasing CCL21 concentrations (molar ratios of 1:0, 1:0.25, 1:0.5, 1:0.75, 1:1, 1:1.5, 1:2 and 1:2.5 of CCR7:CCL21).
To identify the impact of CCR7 tyrosine modification on CCL21 binding, 100 μM of U-^15N CCL21 in NMR buffer was titrated with increasing concentrations of the indicated CCR7 peptides and monitored using ^15N-^1H HSQC spectra, as previously described. […] Combined amide chemical shift perturbations (Δδ) were computed as [(5ΔδH)^2+(ΔδN)^2]^1/2, where ΔδH and ΔδN are the changes in backbone amide ^1H and ^15N chemical shifts in ppm, respectively. Dose-dependent changes in chemical shift perturbations upon titration with the various CCR7 peptides were used to determine dissociation constant (Kd) values through nonlinear fitting to an equation that takes into account ligand depletion, as previously described.

A further assay concerns the target T2, CCR7 5–11 (Homo sapiens).
T2 chain: TDDYIGD-NH2
Nature of the assay: NMR.

The target in the next assay is T3, CCR7 5–11 pY8 (Homo sapiens, N-terminus assumed; SMILES CC[C@H](C)[C@H](NC(=O)[C@H](Cc1ccc(OP(=O)(O)O)cc1)NC(=O)[C@H](CC(=O)O)NC(=O)[C@H](CC(=O)O)NC(=O)[C@@H](N)[C@@H](C)O)C(=O)NCC(=O)N[C@@H](CC(=O)O)C(N)=O).
T3 chain: TDD[pY]IGD-NH2
The assay is described as follows: NMR.

In the next assay the target is T4, CCR7 5–11 sY8 (Homo sapiens, N-terminus assumed; SMILES CC[C@H](C)[C@H](NC(=O)[C@H](Cc1ccc(OS(=O)(=O)O)cc1)NC(=O)[C@H](CC(=O)O)NC(=O)[C@H](CC(=O)O)NC(=O)[C@@H](N)[C@@H](C)O)C(=O)NCC(=O)N[C@@H](CC(=O)O)C(N)=O).
T4 chain: TDD[sY]IGD-NH2
Nature of the assay: NMR.

Non-standard residues stand in square brackets, D forms with d. Residues, ends and D or L forms follow the SMILES beside them. No end group written: not given here. sY = N[C@@H](Cc1ccc(OS(=O)(=O)O)cc1)C(=O)O; pY = N[C@@H](Cc1ccc(OP(=O)(O)O)cc1)C(=O)O

A word on the Kd: it is the equilibrium constant for the complex coming apart.

Consider `CC[C@H](C)[C@H](NC(=O)[C@H](Cc1ccc(OP(=O)(O)O)cc1)NC(=O)[C@H](CC(=O)O)NC(=O)[C@H](CC(=O)O)NC(=O)[C@@H](N)[C@@H](C)O)C(=O)NCC(=O)N[C@@H](CC(=O)O)C(N)=O` [CCR7 5–11 pY8] (H-TDD[pY]IGD-NH2), for which the Kd at CCL21 was 240 ± 60 µM. As for `CC[C@H](C)[C@H](NC(=O)[C@H](Cc1ccc(OS(=O)(=O)O)cc1)NC(=O)[C@H](CC(=O)O)NC(=O)[C@H](CC(=O)O)NC(=O)[C@@H](N)[C@@H](C)O)C(=O)NCC(=O)N[C@@H](CC(=O)O)C(N)=O` [CCR7 5–11 sY8] (H-TDD[sY]IGD-NH2), on CCL21, the Kd was 140 ± 40 µM and the “Kd, CCL21 K69 only (representative residue)” value worked out at 180 ± 40 µM. Take `CC(C)C[C@H](NC(=O)[C@H](CO)NC(=O)[C@H](CCC(=O)O)NC(=O)[C@H](Cc1ccccc1)NC(=O)[C@H](CC(C)C)NC(=O)[C@@H](NC(=O)[C@H](Cc1ccc(OP(=O)(O)O)cc1)NC(=O)[C@H](CC(=O)O)NC(=O)[C@@H](NC(=O)[C@@H](NC(=O)[C@@H](NC(=O)[C@H](CC(N)=O)NC(=O)[C@@H](N)CC(=O)O)[C@@H](C)O)[C@@H](C)O)C(C)C)[C@@H](C)O)C(=O)N[C@@H](C)C(=O)N[C@@H](CO)C(=O)N[C@@H](CCCCN)C(=O)N[C@@H](CCCCN)C(=O)N[C@@H](CC(=O)O)C(=O)N[C@H](C(=O)N[C@@H](CCCNC(=N)N)C(N)=O)C(C)C` [CCR7 11–30 pY17] (H-DNTTVD[pY]TLFESLASKKDVR-NH2): on CCL21, the Kd is 1700 µM. On the same count and under the same terms, next, `CC(C)C[C@H](NC(=O)[C@H](CO)NC(=O)[C@H](CCC(=O)O)NC(=O)[C@H](Cc1ccccc1)NC(=O)[C@H](CC(C)C)NC(=O)[C@@H](NC(=O)[C@H](Cc1ccc(OS(=O)(=O)O)cc1)NC(=O)[C@H](CC(=O)O)NC(=O)[C@@H](NC(=O)[C@@H](NC(=O)[C@@H](NC(=O)[C@H](CC(N)=O)NC(=O)[C@@H](N)CC(=O)O)[C@@H](C)O)[C@@H](C)O)C(C)C)[C@@H](C)O)C(=O)N[C@@H](C)C(=O)N[C@@H](CO)C(=O)N[C@@H](CCCCN)C(=O)N[C@@H](CCCCN)C(=O)N[C@@H](CC(=O)O)C(=O)N[C@H](C(=O)N[C@@H](CCCNC(=N)N)C(N)=O)C(C)C` [CCR7 11–30 sY17] (H-DNTTVD[sY]TLFESLASKKDVR-NH2): 480 ± 70 µM; DNTTVDYTLFESLASKKDVR-NH2 [CCR7 11–30]: 6800 µM. For the molecule TDDYIGD-NH2 [CCR7 5–11], on CCL21, the Kd came to 700 ± 300 µM and the “Kd, CCL21 K69 only (representative residue)” value stood at 530 ± 40 µM.

B1: CCL21 (protein)
chain: SDGGAQDCCLKYSQRKIPAKVVRSYRKQEPSLGCSIPAILFLPRKRSQAELCADPKELWVQQLMQHLDKTPSPQKPAQGCRKDRGASKTGKKGKGSKGCKRTERSQTPKGP
Take B1: the Kd with CCR7 5–11 came to 700 µM; with CCR7 5–11 pY8 it was 240 µM; with CCR7 5–11 sY8, 140 µM.
